For one test, the system named is calmodulin (CaM). The test is described as follows: Swelling response of CaM-integrated hydrogel / hydrogel microdomes to free ligand.
In a further test the test system is calmodulin (CaM109). The test is described as follows: Fluorescence assay of conformation change in fluorophore (MDCC)-labeled CaM109 monomer and dimer. The test is classed as binding. The conditions noted are these: added to labeled calmodulin molecules that had already bound calcium.

Source text for calmodulin (CaM): The hydrogel can swell when chlorpromazine (CPZ) is integrated into the hydrogel polymer network because immobilized phenothiazine is displaced from CaM by free CPZ. Phenothiazine is released from its CaM binding site and replaced by CPZ creating a relaxation of polymer chains. This relaxation allows more water to permeate the porous hydrogel polymer network, thus hydrogel swelling occurs.
In the first stage, CaM is bound to a phenothiazine. In the presence of CPZ, competitive binding occurs, and the non-covalent crosslinking is released creating expansion of the hydrogel network.
While the collective array can be used to visually screen for an analyte, the individually addressable microdome array is analyzed using a laser screening system to detect the change in height of the microdomes. The initial size of the hydrogel microdome, including the height of the microdome, is determined using the stylus profilometer. […] The microdome array 22 on substrate 24 is placed on a stage micrometer 26. A light generating means 14 such as a laser diode generates a light beam 16 that is reflected off the top of microdome 22 to produce a diffracted light 18 that is captured by photodiode 20. By positioning the microdome 22 on the stage micrometer 26, the initial height of the microdome can be determined by the amount of light deflected off the top of the microdome 22 by counting the number of photons detected by the photodiode 20.
After the initial reading, the microdome is not moved. A test solution is applied to the microdome for about 1 to 3½ minutes and then is removed and if the microdome swells, the amount of photons emitted off the microdome will change due to the swelling. The swell time for the hydrogel microdome is about 3½ minutes after the solution is applied to the microdome. […] After the test, the stage micrometer can be adjusted to bring another near by microdome in the array into the sensing area.
Source text for calmodulin (CaM109): In order to measure the extent of conformation change in CaM molecules in response to calcium and phenothiazine binding, a system has been developed in which a fluorophore is conjugated to a cysteine residue that had been inserted at amino acid 109 of wild type CaM using methods well known to those skilled in the art. This CaM mutant was called CaM109. The fluorescence of the fluorophore increases as the conformation of CaM changes in the presence of calcium.
Since wild-type CaM contains no cysteines, the addition of a cysteine to CaM at a desired position within the protein, allows for labeling of the protein at this position. Such labeling was done using a thiol-reactive fluorescent label called N-[2-(1-maleimidyl)ethyl]-7-(diethylamino)coumarin-3-carboxamide, or MDCC.
The fluorescence response of MDCC-labeled, CaM109 molecules was recorded in the absence and presence of 3×10^6 M Ca^++. The Ca^++ concentration was controlled by EGTA at pH 8.0, and the free Ca^++ concentrations were calculated using the software program Chelator (Haugland, 1996, Handbook of Fluorescent Probes and Research Chemicals, 6th edition, Molecular Probes, Eugene, Oreg., p. 52).

Take `CN(C)CCCN1c2ccccc2Sc2ccc(Cl)cc21` [chlorpromazine]: the “binding affinity for CaM (relative)” value with calmodulin (CaM) (displacement of immobilized phenothiazine from the CaM binding site in the hydrogel) is “higher binding affinity for CaM than phenothiazine”. Moreover, the “swelling of protein-hydrogel microdomes” value in the test on calmodulin (CaM) (microdomes on polymethyl methacrylate or silanized glass slides) is listed as “swelling occurred”. Besides, the “swelling of CaM hydrogel with immobilized phenyl ligand (4-phenyl-1-butene)” value with calmodulin (CaM) (phenothiazine derivative replaced with 4-phenyl-1-butene, swelling irreversible, FIG. 17) is reported as “the hydrogel swells”.
Turning to `c1ccc2c(c1)Nc1ccccc1S2` [phenothiazine], in the test with calmodulin (CaM109), the fluorescence quenched is 100%.

Values taken from patent US7625951B2, “Stimuli-responsive hydrogel microdomes integrated with genetically engineered proteins for high-throughput screening of pharmaceuticals” (University of Kentucky Research Foundation, priority 2000, dated 2009).
